Measured values taken from US20260284018A1, “DUAL INHIBITORS OF DYRK1A AND 5-HT2 FOR TREATING A BRAIN DISORDER” (THE REGENTS OF THE UNIVERSITY OF CALIFORNIA, priority 2023, published 2026).

Experiments:
Experiment in all cases: KINOMEscan scanEDGE
Type in all cases: binding
Details in all cases: read-out: Percent Control
ADCK3 = target: T1, ADCK3 (Homo sapiens, UniProt Q8NI60)
T1 construct: purchased Eurofins DiscoverX
Method: (§1) Kinome Scan. Compound HTW_A_8 fumarate was screened against 97 kinases at a single concentration of 10 μM at Eurofins DiscoverX using their KINOMEscan™ scanEDGE assay. The results are reported as the % activity relative to DMSO control, where lower values indicate higher affinity. See Table 1 for the full kinome profile.

AKT1 = target: T2, AKT1 (Homo sapiens, UniProt P31749)
T2 construct: purchased Eurofins DiscoverX
Method: as §1

AKT2 = target: T3, AKT2 (Homo sapiens, UniProt P31751)
T3 construct: purchased Eurofins DiscoverX
Method: as §1

AURKA = target: T4, AURKA (Homo sapiens, UniProt O14965)
T4 construct: purchased Eurofins DiscoverX
Method: as §1

BMPR2 = target: T5, BMPR2 (Homo sapiens, UniProt Q13873)
T5 construct: purchased Eurofins DiscoverX
Method: as §1

BTK = target: T6, BTK (Homo sapiens, UniProt Q06187)
T6 construct: purchased Eurofins DiscoverX
Method: as §1

CDK11 = target: T7, CDK11 (Homo sapiens, UniProt Q9BWU1)
T7 construct: purchased Eurofins DiscoverX
Method: as §1

CDK2 = target: T8, CDK2 (Homo sapiens, UniProt P24941)
T8 construct: purchased Eurofins DiscoverX
Method: as §1

CDK7 = target: T9, CDK7 (Homo sapiens, UniProt P50613)
T9 construct: purchased Eurofins DiscoverX
Method: as §1

CDK9 = target: T10, CDK9 (Homo sapiens, UniProt P50750)
T10 construct: purchased Eurofins DiscoverX
Method: as §1

CSF1R = target: T11, CSF1R (Homo sapiens, UniProt P07333)
T11 construct: purchased Eurofins DiscoverX
Method: as §1

CSNK1D = target: T12, CSNK1D (Homo sapiens, UniProt P48730)
T12 construct: purchased Eurofins DiscoverX
Method: as §1

EPHA2 = target: T13, EPHA2 (Homo sapiens, UniProt P29317)
T13 construct: purchased Eurofins DiscoverX
Method: as §1

FAK = target: T14, FAK (Homo sapiens, UniProt Q05397)
T14 construct: purchased Eurofins DiscoverX
Method: as §1

JNK1 = target: T15, JNK1 (Homo sapiens, UniProt P45983)
T15 construct: purchased Eurofins DiscoverX
Method: as §1

KIT(V559D, T670I) = target: T16, KIT(V559D, T670I) (Homo sapiens, UniProt P10721, T670I/V559D)
T16 construct: purchased Eurofins DiscoverX
Method: as §1

MAPKAPK2 = target: T17, MAPKAPK2 (Homo sapiens, UniProt P49137)
T17 construct: purchased Eurofins DiscoverX (KINOMEscan scanEDGE service)
Method: as §1

MEK1 = target: T18, MEK1 (Homo sapiens, UniProt Q02750)
T18 construct: purchased Eurofins DiscoverX (KINOMEscan scanEDGE service)
Method: as §1

MEK2 = target: T19, MEK2 (Homo sapiens, UniProt P36507)
T19 construct: purchased Eurofins DiscoverX (KINOMEscan scanEDGE service)
Method: as §1

MET = target: T20, MET (Homo sapiens, UniProt P08581)
T20 construct: purchased Eurofins DiscoverX (KINOMEscan scanEDGE service)
Method: as §1

MKNK1 = target: T21, MKNK1 (Homo sapiens, UniProt Q9BUB5)
T21 construct: purchased Eurofins DiscoverX (KINOMEscan scanEDGE service)
Method: as §1

PAK2 = target: T22, PAK2 (Homo sapiens, UniProt Q13177)
T22 construct: purchased Eurofins DiscoverX (KINOMEscan scanEDGE service)
Method: as §1

PDGFRB = target: T23, PDGFRB (Homo sapiens, UniProt P09619)
T23 construct: purchased Eurofins DiscoverX (KINOMEscan scanEDGE service)
Method: as §1

PIK3C2B = target: T24, PIK3C2B (Homo sapiens, UniProt O00750)
T24 construct: purchased Eurofins DiscoverX (KINOMEscan scanEDGE service)
Method: as §1

PIK3CG = target: T25, PIK3CG (Homo sapiens, UniProt P48736)
T25 construct: purchased Eurofins DiscoverX (KINOMEscan scanEDGE service)
Method: as §1

PIM1 = target: T26, PIM1 (Homo sapiens, UniProt P11309)
T26 construct: purchased Eurofins DiscoverX (KINOMEscan scanEDGE service)
Method: as §1

PRKCE = target: T27, PRKCE (Homo sapiens, UniProt Q02156)
T27 construct: purchased Eurofins DiscoverX KINOMEscan scanEDGE
Method: as §1

RIOK2 = target: T28, RIOK2 (Homo sapiens, UniProt Q9BVS4)
T28 construct: purchased Eurofins DiscoverX KINOMEscan scanEDGE
Method: as §1

ROCK2 = target: T29, ROCK2 (Homo sapiens, UniProt O75116)
T29 construct: purchased Eurofins DiscoverX KINOMEscan scanEDGE
Method: as §1

[1] = target: T30, RSK2(Kin.Dom.1-N-terminal) (Homo sapiens, UniProt P51812)
T30 construct: RSK2(Kin.Dom.1-N-terminal); purchased Eurofins DiscoverX KINOMEscan scanEDGE
Method: as §1

SNARK = target: T31, SNARK (Homo sapiens, UniProt Q9H093)
T31 construct: purchased Eurofins DiscoverX KINOMEscan scanEDGE
Method: as §1

TGFBR1 = target: T32, TGFBR1 (Homo sapiens, UniProt P36897)
T32 construct: purchased Eurofins DiscoverX KINOMEscan scanEDGE
Method: as §1

TSSK1B = target: T33, TSSK1B (Homo sapiens, UniProt Q9BXA7)
T33 construct: purchased Eurofins DiscoverX KINOMEscan scanEDGE
Method: as §1

ULK2 = target: T34, ULK2 (Homo sapiens, UniProt Q8IYT8)
T34 construct: purchased Eurofins DiscoverX KINOMEscan scanEDGE
Method: as §1

VEGFR2 = target: T35, VEGFR2 (Homo sapiens, UniProt P35968)
T35 construct: purchased Eurofins DiscoverX KINOMEscan scanEDGE
Method: as §1

YANK3 = target: T36, YANK3 (Homo sapiens, UniProt Q86UX6)
T36 construct: purchased Eurofins DiscoverX KINOMEscan scanEDGE
Method: as §1

p38-alpha = target: T37, p38-alpha (Homo sapiens, UniProt Q16539)
T37 construct: purchased Eurofins DiscoverX (KINOMEscan scanEDGE service)
Method: as §1

p38-beta = target: T38, p38-beta (Homo sapiens, UniProt Q15759)
T38 construct: purchased Eurofins DiscoverX (KINOMEscan scanEDGE service)
Method: as §1

T25 sequence (P48736 whole entry): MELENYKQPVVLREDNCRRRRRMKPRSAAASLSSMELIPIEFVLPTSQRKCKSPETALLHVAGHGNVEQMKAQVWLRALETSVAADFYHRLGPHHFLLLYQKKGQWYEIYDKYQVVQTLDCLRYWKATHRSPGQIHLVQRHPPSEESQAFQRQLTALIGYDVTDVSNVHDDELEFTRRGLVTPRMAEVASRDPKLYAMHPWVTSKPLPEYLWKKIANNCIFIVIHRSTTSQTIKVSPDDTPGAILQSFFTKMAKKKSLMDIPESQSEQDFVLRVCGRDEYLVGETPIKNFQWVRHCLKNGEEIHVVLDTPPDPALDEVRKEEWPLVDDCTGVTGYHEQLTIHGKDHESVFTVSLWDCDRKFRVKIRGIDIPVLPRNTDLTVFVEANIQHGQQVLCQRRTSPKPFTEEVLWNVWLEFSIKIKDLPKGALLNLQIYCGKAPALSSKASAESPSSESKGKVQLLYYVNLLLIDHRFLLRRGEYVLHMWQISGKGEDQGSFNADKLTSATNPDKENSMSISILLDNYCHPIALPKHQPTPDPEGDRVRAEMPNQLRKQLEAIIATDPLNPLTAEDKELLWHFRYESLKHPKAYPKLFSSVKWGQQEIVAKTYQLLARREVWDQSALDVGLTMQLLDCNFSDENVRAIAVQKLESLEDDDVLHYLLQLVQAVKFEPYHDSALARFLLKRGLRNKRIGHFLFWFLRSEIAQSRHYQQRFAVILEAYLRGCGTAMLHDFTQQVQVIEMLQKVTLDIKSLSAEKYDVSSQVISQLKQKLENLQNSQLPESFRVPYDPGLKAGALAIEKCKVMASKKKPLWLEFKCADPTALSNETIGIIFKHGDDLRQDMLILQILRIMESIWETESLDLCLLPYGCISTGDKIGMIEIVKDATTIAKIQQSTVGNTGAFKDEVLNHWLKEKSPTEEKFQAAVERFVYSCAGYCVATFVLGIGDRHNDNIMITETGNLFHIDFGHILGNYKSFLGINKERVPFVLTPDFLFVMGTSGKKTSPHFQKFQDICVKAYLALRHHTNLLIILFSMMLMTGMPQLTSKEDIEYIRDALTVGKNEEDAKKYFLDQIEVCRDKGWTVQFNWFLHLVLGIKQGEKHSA
T37 sequence (Q16539 whole entry): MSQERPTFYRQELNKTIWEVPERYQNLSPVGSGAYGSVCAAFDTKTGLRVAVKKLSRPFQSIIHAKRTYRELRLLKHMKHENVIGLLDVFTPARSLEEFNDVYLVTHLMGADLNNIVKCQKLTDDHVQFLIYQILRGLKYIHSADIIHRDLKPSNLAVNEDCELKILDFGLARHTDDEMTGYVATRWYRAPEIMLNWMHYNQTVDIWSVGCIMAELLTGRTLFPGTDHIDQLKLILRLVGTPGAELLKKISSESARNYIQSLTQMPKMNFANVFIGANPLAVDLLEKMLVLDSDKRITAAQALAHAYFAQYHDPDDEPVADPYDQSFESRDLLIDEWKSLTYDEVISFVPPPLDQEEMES
T7 sequence (Q9BWU1 whole entry): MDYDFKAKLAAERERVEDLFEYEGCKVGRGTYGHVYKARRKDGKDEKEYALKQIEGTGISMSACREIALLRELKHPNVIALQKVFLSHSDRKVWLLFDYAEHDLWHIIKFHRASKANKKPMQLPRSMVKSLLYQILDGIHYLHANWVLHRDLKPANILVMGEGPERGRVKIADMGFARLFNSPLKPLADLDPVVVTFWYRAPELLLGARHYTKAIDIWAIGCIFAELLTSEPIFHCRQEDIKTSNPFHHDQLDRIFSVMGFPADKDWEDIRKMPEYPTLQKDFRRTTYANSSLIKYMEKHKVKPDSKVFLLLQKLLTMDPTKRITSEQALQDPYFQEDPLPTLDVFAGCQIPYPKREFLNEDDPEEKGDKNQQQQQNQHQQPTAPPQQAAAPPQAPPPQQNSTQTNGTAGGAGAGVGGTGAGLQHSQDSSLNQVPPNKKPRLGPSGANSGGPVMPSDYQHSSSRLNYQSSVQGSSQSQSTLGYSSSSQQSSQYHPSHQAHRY
T16 sequence (P10721 26-976 V559D/T670I): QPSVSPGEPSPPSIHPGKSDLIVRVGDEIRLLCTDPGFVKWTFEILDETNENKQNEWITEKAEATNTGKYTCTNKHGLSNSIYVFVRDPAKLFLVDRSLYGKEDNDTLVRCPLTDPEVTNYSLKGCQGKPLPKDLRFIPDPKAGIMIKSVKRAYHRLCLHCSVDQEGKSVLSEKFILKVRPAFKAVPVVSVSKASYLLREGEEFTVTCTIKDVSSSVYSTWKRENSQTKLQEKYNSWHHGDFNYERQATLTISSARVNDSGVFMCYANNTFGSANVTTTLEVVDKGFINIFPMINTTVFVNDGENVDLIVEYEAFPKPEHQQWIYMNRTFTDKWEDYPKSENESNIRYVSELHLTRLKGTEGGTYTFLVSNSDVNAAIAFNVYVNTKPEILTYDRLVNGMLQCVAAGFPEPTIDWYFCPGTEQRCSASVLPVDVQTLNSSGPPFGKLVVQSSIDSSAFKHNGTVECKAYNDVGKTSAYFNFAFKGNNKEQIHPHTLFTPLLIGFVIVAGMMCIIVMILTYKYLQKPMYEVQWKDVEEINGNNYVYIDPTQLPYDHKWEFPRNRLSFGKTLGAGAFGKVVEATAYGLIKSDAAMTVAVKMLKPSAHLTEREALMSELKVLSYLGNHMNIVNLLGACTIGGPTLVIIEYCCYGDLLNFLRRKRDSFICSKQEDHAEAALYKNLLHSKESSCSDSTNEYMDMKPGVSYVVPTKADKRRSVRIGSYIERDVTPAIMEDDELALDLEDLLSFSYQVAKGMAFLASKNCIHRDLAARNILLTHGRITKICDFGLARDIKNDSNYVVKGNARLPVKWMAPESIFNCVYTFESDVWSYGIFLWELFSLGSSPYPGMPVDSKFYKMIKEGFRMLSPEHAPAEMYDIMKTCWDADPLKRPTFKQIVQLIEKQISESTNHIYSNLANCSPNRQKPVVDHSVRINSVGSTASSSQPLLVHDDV
T19 sequence (P36507 whole entry): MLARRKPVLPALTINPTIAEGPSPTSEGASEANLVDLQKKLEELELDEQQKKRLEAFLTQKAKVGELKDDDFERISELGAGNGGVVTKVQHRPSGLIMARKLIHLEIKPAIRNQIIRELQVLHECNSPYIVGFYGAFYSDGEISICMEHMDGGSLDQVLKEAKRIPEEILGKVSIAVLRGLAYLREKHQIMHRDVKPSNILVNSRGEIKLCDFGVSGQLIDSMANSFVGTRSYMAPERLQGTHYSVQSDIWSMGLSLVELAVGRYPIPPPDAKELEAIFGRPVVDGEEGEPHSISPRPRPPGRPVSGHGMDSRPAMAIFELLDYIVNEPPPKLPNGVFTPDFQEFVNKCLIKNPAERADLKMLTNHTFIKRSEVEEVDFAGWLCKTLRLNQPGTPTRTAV
T2 sequence (P31749 whole entry): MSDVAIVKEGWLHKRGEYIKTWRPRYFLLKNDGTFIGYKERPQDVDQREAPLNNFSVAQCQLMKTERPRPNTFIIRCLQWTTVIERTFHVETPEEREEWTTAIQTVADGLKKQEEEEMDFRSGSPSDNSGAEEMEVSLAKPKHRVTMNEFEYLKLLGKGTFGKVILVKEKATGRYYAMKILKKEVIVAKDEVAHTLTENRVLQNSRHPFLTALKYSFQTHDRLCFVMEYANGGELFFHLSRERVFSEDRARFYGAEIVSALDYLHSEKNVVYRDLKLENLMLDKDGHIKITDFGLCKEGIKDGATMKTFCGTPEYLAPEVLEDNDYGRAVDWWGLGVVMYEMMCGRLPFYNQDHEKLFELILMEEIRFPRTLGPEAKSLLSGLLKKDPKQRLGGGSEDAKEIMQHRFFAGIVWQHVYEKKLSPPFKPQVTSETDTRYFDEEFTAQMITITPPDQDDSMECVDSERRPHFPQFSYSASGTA
T18 sequence (Q02750 whole entry): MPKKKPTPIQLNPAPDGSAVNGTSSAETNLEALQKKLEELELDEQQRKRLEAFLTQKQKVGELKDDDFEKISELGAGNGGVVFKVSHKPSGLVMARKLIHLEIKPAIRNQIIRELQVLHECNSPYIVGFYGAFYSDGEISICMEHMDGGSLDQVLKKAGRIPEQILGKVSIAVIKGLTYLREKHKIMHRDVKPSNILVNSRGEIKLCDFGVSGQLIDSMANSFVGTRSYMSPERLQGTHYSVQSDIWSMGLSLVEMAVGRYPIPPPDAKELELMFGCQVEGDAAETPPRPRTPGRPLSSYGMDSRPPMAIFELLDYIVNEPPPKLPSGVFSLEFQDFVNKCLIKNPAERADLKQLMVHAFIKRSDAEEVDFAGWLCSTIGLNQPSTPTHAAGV
T21 sequence (Q9BUB5 whole entry): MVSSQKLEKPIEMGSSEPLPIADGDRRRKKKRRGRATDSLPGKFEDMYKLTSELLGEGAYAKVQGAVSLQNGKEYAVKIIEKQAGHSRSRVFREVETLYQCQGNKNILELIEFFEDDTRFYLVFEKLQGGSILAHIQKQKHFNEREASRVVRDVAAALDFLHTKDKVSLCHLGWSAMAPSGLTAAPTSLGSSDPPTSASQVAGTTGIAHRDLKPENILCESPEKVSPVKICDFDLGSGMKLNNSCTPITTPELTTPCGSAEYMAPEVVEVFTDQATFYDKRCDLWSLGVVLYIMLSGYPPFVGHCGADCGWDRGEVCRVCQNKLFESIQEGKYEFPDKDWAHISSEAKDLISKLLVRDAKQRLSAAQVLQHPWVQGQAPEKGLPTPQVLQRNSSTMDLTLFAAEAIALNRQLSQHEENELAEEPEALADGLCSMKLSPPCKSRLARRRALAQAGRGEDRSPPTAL
T26 sequence (P11309 whole entry): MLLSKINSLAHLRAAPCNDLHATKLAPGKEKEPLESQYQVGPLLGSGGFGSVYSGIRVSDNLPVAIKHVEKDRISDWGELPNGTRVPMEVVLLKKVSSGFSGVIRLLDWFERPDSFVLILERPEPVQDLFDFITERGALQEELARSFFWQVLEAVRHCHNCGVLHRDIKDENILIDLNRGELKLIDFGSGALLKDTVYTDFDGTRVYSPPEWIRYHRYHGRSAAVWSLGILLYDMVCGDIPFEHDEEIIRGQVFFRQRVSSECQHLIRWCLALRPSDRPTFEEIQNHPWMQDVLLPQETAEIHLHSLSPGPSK

Compound `COc1ccc2c3ccnc(C)c3n(CCN(C)C)c2c1.O=C(O)/C=C/C(=O)O` [HTW_A_8 fumarate, 2-(7-methoxy-1-methyl-9H-pyrido[3,4-b]indol-9-yl)-N,N-dimethylethan-1-amine Fumarate Salt (2:3)] has a remaining binding at 10 µM (ADCK3) of 100%, a remaining binding at 10 µM (AKT1) of 96% and a remaining binding at 10 µM (AKT2) of 100%. The remaining binding at 10 µM (AURKA) was 100%, the remaining binding at 10 µM (BMPR2) was 100% and the remaining binding at 10 µM (BTK) was 100%. It also gave a remaining binding at 10 µM (CDK11) of 95%, a remaining binding at 10 µM (CDK2) of 100% and a remaining binding at 10 µM (CDK7) of 15%. It also gave a remaining binding at 10 µM (CDK9) of 100%, a remaining binding at 10 µM (CSF1R) of 98% and a remaining binding at 10 µM (CSNK1D) of 88%. The remaining binding at 10 µM (EPHA2) was 88%, the remaining binding at 10 µM (FAK) was 100% and the remaining binding at 10 µM (JNK1) was 100%. The remaining binding at 10 µM (KIT(V559D, T670I)) was 89%, the remaining binding at 10 µM (MAPKAPK2) was 99% and the remaining binding at 10 µM (MEK1) was 87%. It also gave a remaining binding at 10 µM (MEK2) of 82%, a remaining binding at 10 µM (MET) of 100% and a remaining binding at 10 µM (MKNK1) of 93%. For the same compound, the remaining binding at 10 µM (PAK2) was 96%, the remaining binding at 10 µM (PDGFRB) was 100% and the remaining binding at 10 µM (PIK3C2B) was 100%. The remaining binding at 10 µM (PIK3CG) was 33%, the remaining binding at 10 µM (PIM1) was 94% and the remaining binding at 10 µM (PRKCE) was 100%. The remaining binding at 10 µM (RIOK2) was 83%, the remaining binding at 10 µM (ROCK2) was 73% and the remaining binding at 10 µM [1] was 99%. For the same compound, the remaining binding at 10 µM (SNARK) was 100%, the remaining binding at 10 µM (TGFBR1) was 90% and the remaining binding at 10 µM (TSSK1B) was 100%. For the same compound, the remaining binding at 10 µM (ULK2) was 100%, the remaining binding at 10 µM (VEGFR2) was 100% and the remaining binding at 10 µM (YANK3) was 94%. The remaining binding at 10 µM (p38-alpha) was 100% and the remaining binding at 10 µM (p38-beta) was 98%.
